Reference: patent publication US20170280720A1, “ARGININE […] INHIBITORS AND USES THEREOF” (EPIZYME, INC., priority 2014, published 2017)

Tested on: asymmetric di-methyl PABP1 in RKO cells
Test: In Cell Western (ICW) for asymmetric di-methyl PABP1 and DNA content in RKO cells
Format: cell-based
Method in brief: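 RKO cells treated with compound for 48 h at 37 °C, then fixed, methanol-permeabilized and stained for asymmetric di-methyl PABP1 (800 nm) with DRAQ5 DNA stain (700 nm). Signal ratio normalized to DMSO and 20 μM reference-compound controls. IC50 from nine 3-fold dilutions in triplicate.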

[1] = Homo sapiens, RKO, In Cell Western

Row | Structure (SMILES) | IC50 [1] | IC50 (48 hours) | other results
1 | CNCCN(C)Cc1cccc(-c2cc(C(=O)NCc3c(C)cc(C)[nH]c3=O)c3cnn(C(C)C)c3n2)c1 [Compound 368] | – | 1.01 µM | –
2 | CNCCN(C)Cc1cccc(-c2cc(C(=O)NCc3c(C)cc(C)[nH]c3=O)c(C)c3[nH]ncc23)c1 [Compound 372] | – | ≥ 20 µM | –
3 | CNCCN(C)Cc1ccc(-c2cc(C(=O)NCc3c(C)cc(C)[nH]c3=O)c(C)c3n[nH]cc23)cc1 [Compound 362] | – | – | IC50 (Homo sapiens, RKO, 48 h): ≥ 20 µM
4 | CNCCN(C)Cc1cccc(-c2cc(C(=O)NCc3c(C)cc(C)[nH]c3=O)c3cnn(C(C)C)c3c2)c1 [Compound 367] | – | 6.48 µM | –
5 | CN(CCN)Cc1cccc(-c2ccc(C(=O)NCC3CCOCC3)c(N(C)CC3CC3)c2)c1 [Compound 263] | 20 µM | – | –
6 | Cc1cc(C)c(CNC(=O)c2cc(-c3cccc(CN(C)CCN)c3)nc3c2cnn3C(C)C)c(=O)[nH]1 [Compound 360] | – | 0.934 µM | –

Second part, led by results:

Row | IC50 [1] | Structure (SMILES) | IC50 (48 hours) | other results
7 | 6.38 µM | CNCCN(C)Cc1cccc(-c2cc(C(=O)N(C)Cc3ccccn3)c3cnn(C(C)C)c3n2)c1 [Compound 300] | – | –
8 | 3.55 µM | CNCCN(C)Cc1cccc(-c2cc(C(=O)NCc3ccncc3)c3cnn(C(C)C)c3n2)c1 [Compound 182] | – | –
9 | 0.897 µM | CNCCN(C)Cc1cccc(-c2nc(C(=O)NCc3cn4ccsc4n3)c3cnn(C4CC4)c3n2)c1 [Compound 180] | – | –
10 | 9.56 µM | CC(C)n1ncc2c(C(=O)N(C)CC3CCOCC3)cc(-c3cccc(CN(C)CCN)c3)nc21 [Compound 256] | – | –
